Reference: US12006294B2, “Therapeutic compounds” (REGENTS OF THE UNIVERSITY OF MINNESOTA, priority 2017, dated 2024)
Like-named read-outs stand apart in the source and are kept apart here.

What was measured:
CAD5 cells = format: cell-based
Hela Cells = assay: Cellular ER stress model (tunicamycin, WST-8 cell viability); conditions: for AntiERStress (% Cell Survival): HeLa cells, tunicamycin 48 hours, WST-8
[1] = Homo sapiens, HeLa, 48 h, read-out: % Cell Survival Cmpd(2.5 μM) + Tuni, Hela cells, compound 2.5 μM + tunicamycin, WST-8 viability 48 hours after tunicamycin treatment
[2] = Homo sapiens, HeLa, 48 h, read-out: Compounds ERS (vs Tn), ERS activity vs Tuni = % cell survival (compound)/% cell survival (tunicamycin), compound 2.5 μM

Row | Structure (SMILES) | 1/Elispot (CAD5 cells) | AntiPrion (Number of Cells × 10^4) (CAD5 cells) | EliSpot (Spots/10000 Cells) (CAD5 cells) | Elispot (vs PC) (CAD5 cells) | AntiERStress (% Cell Survival) (Hela Cells) | viability at 2.5 µM (Hela Cells; [1]) | viability at 2.5 µM (Hela Cells; [2]) | % Cell Survival Cmpd + Tuni (Hela Cells; Hela cells, Salubrinal 25 μM + tunicamycin, WST-8 48 hours) | viability at 25 µM (Hela Cells; Homo sapiens, HeLa, 48 h, read-out: Compounds ERS (vs Tn), % cell survival (compound)/% cell survival (tunicamycin), Salubrinal 25 μM)
1 | N=C(N)N/N=C/c1c(Cl)cc(O)cc1Cl [BC1-167-1, (E)-2-(2,6-dichloro-4-hydroxybenzylidene)hydrazinecarboximidamide acetate] | 0.87 | 9 × 10^4 | 1500 Spots/10000 Cells | 1.15 | 45.93 % Cell Survival | – | – | – | –
2 | N=C(N)N/N=C\c1c(Cl)cc(O)cc1Cl [BC1-171-1] | 1.00 | 16 × 10^4 | 1300 Spots/10000 Cells | 1.00 | 52.54 % Cell Survival | – | – | – | –
3 | Clc1cc(Cl)cc(NC2=NCCN2)c1 [BC1-242-2, N-(3,5-dichlorophenyl)-4,5-dihydro-1H-imidazol-2-amine] | 1.86 | 50 × 10^4 | 700 Spots/10000 Cells | 0.54 | 57.56 % Cell Survival | – | – | – | –
4 | N=C(N)NCCc1c(Cl)cccc1Cl [BC1-252-2, 1-(2,6-dichlorophenethyl)guanidine] | 0.72 | 8 × 10^4 | 1800 Spots/10000 Cells | 1.38 | 49.49 % Cell Survival | – | – | – | –
5 | N=C(N)Nc1c(Cl)cccc1Cl [BC1-256-2, 1-(2,6-dichlorophenyl)guanidine] | 1.44 | 32 × 10^4 | 900 Spots/10000 Cells | 0.69 | 54.77 % Cell Survival | – | – | – | –
6 | C/C(=N\NC(=N)N)c1c(Cl)cccc1Cl [BC1-259-2, (E)-2-(1-(2,6-dichlorophenyl)ethylidene)hydrazinecarboximidamide] | 1.63 | 26 × 10^4 | 800 Spots/10000 Cells | 0.62 | 62.87 % Cell Survival | – | – | – | –
7 | Cl.NC(=O)N/N=C/c1c(Cl)cccc1Cl [BC1-262-1, (E)-2-(2,6-dichlorobenzylidene)hydrazinecarboxamide hydrochloride] | 1.86 | 53 × 10^4 | 700 Spots/10000 Cells | 0.54 | 64.7 % Cell Survival | – | – | – | –
8 | N=C(N)Nn1ccnc1-c1c(Cl)cccc1Cl [BC1-267-2, 1-(2-(2,6-dichlorophenyl)-1H-imidazol-1-yl)guanidine] | 1.00 | 18 × 10^4 | 1300 Spots/10000 Cells | 1.00 | 64.26 % Cell Survival | 42.3% | 102% | – | –
9 | N=C(N)N/N=C/c1c(Cl)ccc(Cl)c1Cl [BC1-282-1, (E)-2-(2,3,6-trichlorobenzylidene)hydrazinecarboximidamide acetate] | 0.76 | 10 × 10^4 | 1700 Spots/10000 Cells | 1.31 | 101.2576 % Cell Survival | 71.6% | 172% | – | –
10 | N=C(N)N/N=C/c1ccccc1 [BC1-295-1, (E)-2-benzylidenehydrazinecarboximidamide acetate] | 2.17 | 37 × 10^4 | 600 Spots/10000 Cells | 0.46 | 60.58 % Cell Survival | – | – | – | –
11 | N=C(N)N/N=C/c1ccccc1Br [BC1-297-1, (E)-2-(2-bromobenzylidene)hydrazinecarboximidamide acetate] | 0.93 | 8 × 10^4 | 1400 Spots/10000 Cells | 1.08 | 90.49 % Cell Survival | – | – | – | –
12 | Cc1ccccc1/C=N/NC(=N)N [BC2-3-1, (E)-2-(2-methylbenzylidene)hydrazinecarboximidamide acetate] | 1.86 | 28 × 10^4 | 700 Spots/10000 Cells | 0.54 | 82.07 % Cell Survival | – | – | – | –
13 | N=C(N)N/N=C/c1c(F)cccc1Cl [BC2-5-1, (E)-2-(2-chloro-6-fluorobenzylidene)hydrazinecarboximidamide acetate] | 1.63 | 34 × 10^4 | 800 Spots/10000 Cells | 0.62 | 104.9813 % Cell Survival | – | – | – | –
14 | N=C(N)N/N=C/c1cccc(Cl)c1Cl [BC2-7-1, (E)-2-(2,3-dichlorobenzylidene)hydrazinecarboximidamide acetate] | 1.00 | 3 × 10^4 | 1300 Spots/10000 Cells | 1.00 | 100.0136 % Cell Survival | 66.7% | 160% | – | –
15 | N=C(N)N/N=C/c1cccc(Cl)c1 [BC2-9-1, (E)-2-(3-chlorobenzylidene)hydrazinecarboximidamide acetate] | 1.44 | 33 × 10^4 | 900 Spots/10000 Cells | 0.69 | 93.32 % Cell Survival | – | – | – | –
16 | N=C(N)N/N=C/c1ccccc1F [BC2-11-1, (E)-2-(2-fluorobenzylidene)hydrazinecarboximidamide acetate] | 1.63 | 38 × 10^4 | 800 Spots/10000 Cells | 0.62 | 52.43 % Cell Survival | – | – | – | –
17 | N=C(N)N/N=C/c1ccc(Cl)cc1 [BC2-13-1, (E)-2-(4-chlorobenzylidene)hydrazinecarboximidamide acetate] | 0.72 | 9 × 10^4 | 1800 Spots/10000 Cells | 1.38 | 68.97 % Cell Survival | – | – | – | –
18 | N=C(N)N/N=C/c1ccc(F)cc1Cl [BC2-17-1, (E)-2-(2-chloro-4-fluorobenzylidene)hydrazinecarboximidamide acetate] | 1.00 | 16 × 10^4 | 1300 Spots/10000 Cells | 1.00 | 104.8795 % Cell Survival | – | – | – | –
19 | N=C(N)N/N=C/c1ccc(Cl)cc1F [BC2-19-1, (E)-2-(4-chloro-2-fluorobenzylidene)hydrazinecarboximidamide acetate] | 0.72 | 5 × 10^4 | 1800 Spots/10000 Cells | 1.38 | 64.15 % Cell Survival | – | – | – | –
20 | COc1cccc(Cl)c1/C=N/NC(=N)N [BC2-25-1, (E)-2-(2-chloro-6-methoxybenzylidene)hydrazinecarboximidamide acetate] | 1.08 | 20 × 10^4 | 1200 Spots/10000 Cells | 0.92 | 51.7 % Cell Survival | – | – | – | –
21 | N=C(N)N/N=C/c1c(Cl)cccc1C(F)(F)F [BC2-45-1, (E)-2-(2-chloro-6-(trifluoromethyl)benzylidene)hydrazinecarboximidamide acetate] | 0.62 | 10 × 10^4 | 2100 Spots/10000 Cells | 1.62 | 99.19 % Cell Survival | – | – | – | –
22 | O=C(/C=C/c1ccccc1)NC(NC(=S)Nc1cccc2cccnc12)C(Cl)(Cl)Cl (stereo not shown) [Salubrinal, reference compound] | – | – | – | – | – | 23.8% | 103% | 38.46% | 116%
